Reference: US8883799B2, “Tricyclic PI3K inhibitor compounds and methods of use” (Genentech, Inc., priority 2010, dated 2014)

Experiments:
MDA-MB-361.1 = experiment: In vitro cell proliferation assay (CellTiter-Glo), MDA-MB-361.1; type: cell-based; settings: Cell line: MDA-MB-361.1; Tissue type: breast; Mutation Status: PI3K; read-out: EC50 (μmole)
Procedure: (§1) Efficacy of Formula I compounds was measured by a cell proliferation assay employing the following protocol (Promega Corp. Technical Bulletin TB288; Mendoza et al (2002) Cancer Res. 62:5485-5488):
(§2) 1. An aliquot of 100 μl of cell culture containing about 10^4 cells (PC3, Detroit562, or MDAMB361.1) in medium was deposited in each well of a 384-well, opaque-walled plate.
(§3) 2. Control wells were prepared containing medium and without cells.
(§4) 3. The compound was added to the experimental wells and incubated for 3-5 days.
(§5) 4. The plates were equilibrated to room temperature for approximately 30 minutes.
(§6) 5. A volume of CellTiter-Glo® Reagent equal to the volume of cell culture medium present in each well was added.
(§7) 6. The contents were mixed for 2 minutes on an orbital shaker to induce cell lysis.
(§8) 7. The plate was incubated at room temperature for 10 minutes to stabilize the luminescence signal.
(§9) 8. Luminescence was recorded and reported in graphs as RLU=relative luminescence units.
(§10) Alternatively, cells were seeded at optimal density in a 96 well plate and incubated for 4 days in the presence of test compound. Alamar Blue™ was subsequently added to the assay medium, and cells were incubated for 6 hr before reading at 544 nm excitation, 590 nm emission. EC50 values were calculated using a sigmoidal dose response curve fit. The term EC50 refers to the half maximal effective concentration and is the concentration at which a drug induces a response halfway between the baseline and maximum after some specified exposure time. It is commonly used as a measure of drug potency.
(§11) The anti-proliferative effects of Formula I exemplary compounds were measured by the CellTiter-Glo® Assay against various tumor cell lines, including the following: […]

PC3 = experiment: In vitro cell proliferation assay (CellTiter-Glo), PC3; type: cell-based; settings: Homo sapiens, PC-3; Cell line: PC3; Tissue type: prostate; Mutation Status: PTEN; read-out: EC50 (μmole)
Procedure: as §1, §2, §3, §4, §5, §6, §7, §8, §9, §10, §11

p110 alpha PI3K = target: T1, p110 alpha PI3K (Homo sapiens, UniProt P42336); experiment: p110α (alpha) PI3K binding assay (fluorescence polarization; alternatively radiometric); settings: read-out: IC50, Ki (μmole) PI3K, p110 alpha binding assay
T1 construct: purchased Upstate Cell Signaling Solutions, Charlottesville, Va
Procedure: Binding Assays: Initial polarization experiments were performed on an Analyst HT® 96-384 (Molecular Devices Corp, Sunnyvale, Calif.). […] After an incubation time of 30 minutes at room temperature, the reactions were stopped by the addition of GRP-1 and PIP3-TAMRA probe (Echelon-Inc., Salt Lake City, Utah) 100 nM and 5 nM final concentrations respectively. Read with standard cut-off filters for the rhodamine fluorophore (λex=530 nm; λem=590 nm) in 384-well black low volume Proxiplates® (PerkinElmer, Wellesley, Mass.) Fluorescence polarization values were plotted as a function of the protein concentration, and the EC50 values were obtained by fitting the data to a 4-parameter equation using KaleidaGraph® software (Synergy software, Reading, Pa.). This experiment also establishes the appropriate protein concentration to use in subsequent competition experiments with inhibitors.
After an incubation time of 30 minutes at room temperature, the reactions were stopped by the addition of GRP-1 and PIP3-TAMRA probe (Echelon-Inc., Salt Lake City, Utah) 100 nM and 5 nM final concentrations respectively. Read with standard cut-off filters for the rhodamine fluorophore (λex=530 nm; λem=590 nm) in 384-well black low volume PROXIPLATES® (PerkinElmer, Wellesley, Mass.) Fluorescence polarization values were plotted as a function of the antagonist concentration, and the IC50 values were obtained by fitting the data to a 4-parameter equation in Assay Explorer® software (MDL, San Ramon, Calif.).
The Formula I compound was serially diluted in 100% DMSO. The kinase reaction was incubated for 1 hr at room temperature, and the reaction was terminated by the addition of PBS. IC50 values were subsequently determined using sigmoidal dose-response curve fit (variable slope).

T1 sequence (P42336 whole entry): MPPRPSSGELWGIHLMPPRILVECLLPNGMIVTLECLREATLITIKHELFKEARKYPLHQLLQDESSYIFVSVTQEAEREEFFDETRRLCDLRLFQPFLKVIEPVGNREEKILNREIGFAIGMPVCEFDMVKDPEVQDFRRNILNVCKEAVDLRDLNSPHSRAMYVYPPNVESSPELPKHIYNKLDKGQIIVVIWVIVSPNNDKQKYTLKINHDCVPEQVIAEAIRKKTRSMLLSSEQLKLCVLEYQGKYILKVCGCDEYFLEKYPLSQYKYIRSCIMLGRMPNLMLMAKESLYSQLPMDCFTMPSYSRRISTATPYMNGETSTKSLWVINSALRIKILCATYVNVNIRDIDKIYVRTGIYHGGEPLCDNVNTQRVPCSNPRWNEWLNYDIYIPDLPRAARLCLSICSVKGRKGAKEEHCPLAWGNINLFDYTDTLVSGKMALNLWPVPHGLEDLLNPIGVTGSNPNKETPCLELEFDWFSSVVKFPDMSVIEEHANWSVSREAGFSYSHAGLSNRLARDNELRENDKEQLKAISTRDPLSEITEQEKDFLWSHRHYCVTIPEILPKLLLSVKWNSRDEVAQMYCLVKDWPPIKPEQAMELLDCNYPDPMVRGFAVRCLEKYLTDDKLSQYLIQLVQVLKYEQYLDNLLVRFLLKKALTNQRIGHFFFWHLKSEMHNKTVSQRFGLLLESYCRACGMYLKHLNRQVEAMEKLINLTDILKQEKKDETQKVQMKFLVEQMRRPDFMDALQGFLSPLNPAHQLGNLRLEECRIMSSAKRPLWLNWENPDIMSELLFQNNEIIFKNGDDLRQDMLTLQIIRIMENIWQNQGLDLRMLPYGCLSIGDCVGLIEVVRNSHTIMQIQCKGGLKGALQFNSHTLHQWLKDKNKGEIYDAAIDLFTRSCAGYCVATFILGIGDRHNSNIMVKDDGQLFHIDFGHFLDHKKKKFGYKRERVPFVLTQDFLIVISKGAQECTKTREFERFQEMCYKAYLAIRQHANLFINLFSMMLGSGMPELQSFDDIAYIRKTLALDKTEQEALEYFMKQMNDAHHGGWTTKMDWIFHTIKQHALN
T1 sequence (P27986 whole entry partner): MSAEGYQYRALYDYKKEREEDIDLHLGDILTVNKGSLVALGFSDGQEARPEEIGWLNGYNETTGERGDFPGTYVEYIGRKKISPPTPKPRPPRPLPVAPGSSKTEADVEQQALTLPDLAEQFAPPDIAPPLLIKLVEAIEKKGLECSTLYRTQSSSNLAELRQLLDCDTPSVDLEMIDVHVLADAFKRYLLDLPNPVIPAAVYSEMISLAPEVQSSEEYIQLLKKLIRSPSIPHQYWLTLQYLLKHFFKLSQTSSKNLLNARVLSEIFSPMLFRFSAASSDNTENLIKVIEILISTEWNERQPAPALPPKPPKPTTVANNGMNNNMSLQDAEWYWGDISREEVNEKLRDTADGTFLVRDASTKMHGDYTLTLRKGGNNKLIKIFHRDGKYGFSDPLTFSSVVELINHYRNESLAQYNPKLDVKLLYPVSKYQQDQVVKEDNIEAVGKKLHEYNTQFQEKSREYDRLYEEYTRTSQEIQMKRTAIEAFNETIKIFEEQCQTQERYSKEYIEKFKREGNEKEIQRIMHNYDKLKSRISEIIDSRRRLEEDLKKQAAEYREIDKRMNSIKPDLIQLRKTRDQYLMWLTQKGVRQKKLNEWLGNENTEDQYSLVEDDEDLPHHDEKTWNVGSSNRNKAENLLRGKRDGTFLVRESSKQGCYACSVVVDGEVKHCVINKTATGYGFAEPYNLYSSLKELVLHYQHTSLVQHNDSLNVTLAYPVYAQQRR

Structure (SMILES)	EC50 (MDA-MB-361.1) [nM]	EC50 (PC3) [nM]	IC50 (p110 alpha PI3K) [nM]
CC1(C)CCn2c(nc3c(N4CCOCC4)nc(-c4cnc(N)nc4)nc32)O1 [Compound 115, 5-(7,7-dimethyl-4-morpholino-8,9-dihydro-7h-[1,3]oxazino[2,3-e]purin-2-yl)pyrimidin-2-amine]	958	1800	–
Nc1ncc(-c2nc(N3CCOCC3)c3c(n2)N2CCC[C@H]2CO3)cn1 [Compound 122, 5-((S)-6-Morpholin-4-yl-2,3,3a,4-tetrahydro-1H-5-oxa-7,9,9b-triaza-cyclopenta[a]naphthalen-8-yl)-pyrimidin-2-ylamine]	3200	2000	–
CC1(C)OCCn2c1nc1c(N3CCOCC3)nc(-c3ccc(N)cn3)nc12 [Compound 138, 6-(6,6-dimethyl-4-morpholino-8,9-dihydro-6H-[1,4]oxazino[3,4-e]purin-2-yl)pyridine-3-amine]	> 10000	> 10000	> 695
Nc1ncc(-c2nc(N3CCOCC3)c3nc4n(c3n2)CCO[C@H]4C(F)(F)F)cn1 [Compound 139, (R)-5-(4-morpholino-6-(trifluoromethyl)-8,9-dihydro-6H-[1,4]oxazino[3,4-e]purin-2-yl)pyrimidin-2-amine]	424	697	–
CC(C)Cn1cc(-c2nc(N3CCOCC3)c3nc4n(c3n2)CCOC4(C)C)cn1 [Compound 148, 2-(1-isobutyl-1H-pyrazol-4-yl)-6,6-dimethyl-4-morpholino-8,9-dihydro-6H-[1,4]oxazino[3,4-e]purine]	> 10000	> 10000	> 695
CN(C)c1cnc(-c2nc(N3CCOCC3)c3nc4n(c3n2)CCOC4(C)C)cn1 [Compound 163, 5-(6,6-dimethyl-4-morpholino-8,9-dihydro-6H-[1,4]oxazino[3,4-e]purin-2-yl)-N,N-dimethylpyrazin-2-amine]	> 10000	> 10000	> 695
CC(C)NC(=O)Nc1ccc(-c2nc(N3CCOCC3)c3nc4n(c3n2)CCOC4(C)C)cc1 [Compound 165, 1-(4-(6,6-dimethyl-4-morpholino-8,9-dihydro-6H-[1,4]oxazino[3,4-e]purin-2-yl)phenyl)-3-isopropylurea]	1200	1300	–
CC1(C)OCCc2c1sc1c(N3CCOCC3)nc(-c3cnc(N)nc3)nc21 [Compound 168, 5-(8,8-Dimethyl-1-morpholin-4-yl-5,8-dihydro-6H-7-oxa-9-thia-2,4-diaza-fluoren-3-yl)-pyrimidin-2-ylamine]	237	215	–
FC(F)(F)C1OCCn2c1nc1c(N3CCOCC3)nc(-c3cccc4[nH]ncc34)nc12 (stereo not drawn) [Compound 169, 2-(1H-indazol-4-yl)-4-morpholino-6-(trifluoromethyl)-8,9-dihydro-6H-[1,4]oxazino[3,4-e]purine]	4400	6900	–

Further lines, results first:

EC50 (MDA-MB-361.1) [nM]	EC50 (PC3) [nM]	IC50 (p110 alpha PI3K) [nM]	Structure (SMILES)
920	1100	–	Oc1cccc(-c2nc(N3CCOCC3)c3nc4n(c3n2)CCOC4C(F)(F)F)c1 (stereo not drawn) [Compound 170, 3-(4-morpholino-6-(trifluoromethyl)-8,9-dihydro-6H-[1,4]oxazino[3,4-e]purin-2-yl)phenol]
3100	3800	–	C[C@@H]1CN(c2nc(-c3cnc(N)nc3)nc3c2nc2n3CCOC2(C)C)C[C@H](C)O1 [Compound 171, 5-(4-((2S,6R)-2,6-dimethylmorpholino)-6,6-dimethyl-8,9-dihydro-6H-[1,4]oxazino[3,4-e]purin-2-yl)pyrimidin-2-amine]
1500	1400	–	CC1(C)CN(c2nc(-c3cnc(N)nc3)nc3c2nc2n3CCOC2(C)C)CCO1 [Compound 172, 5-(4-(2,2-dimethylmorpholino)-6,6-dimethyl-8,9-dihydro-6H-[1,4]oxazino[3,4-e]purin-2-yl)pyrimidin-2-amine]
3400	3600	–	CC1(C)OCCn2c1nc1c(N3C[C@@H]4C[C@H]3CO4)nc(-c3cnc(N)nc3)nc12 [Compound 174, 5-(4-((1S,4S)-2-oxa-5-azabicyclo[2.2.1]heptan-5-yl)-6,6-dimethyl-8,9-dihydro-6H-[1,4]oxazino[3,4-e]purin-2-yl)pyrimidin-2-amine]
889	1900	–	CC1c2nc3c(N4CCOCC4)nc(-c4cnc(N)nc4)nc3n2CCN1C (stereo not drawn) [Compound 176, 5-(6,7-dimethyl-4-morpholino-6,7,8,9-tetrahydropyrazino[2,1-e]purin-2-yl)pyrimidin-2-amine]
94	185	–	CC1(C)OCCn2c1cc1c(N3CCOCC3)nc(-c3cnc(N)nc3)nc12 [Compound 177, 5-(8,8-Dimethyl-1-morpholin-4-yl-5,6-dihydro-8H-7-oxa-2,4,4b-triaza-fluoren-3-yl)-pyrimidin-2-ylamine]
